Patent publication US12070445B2, “System and assay for monitoring production/release of membrane-lytic toxins in bacteria and compounds for modulating same” (priority 2021, dated 2024)
“Also recorded” adds a separate entry of the source. Where a SMILES comes first, the peptide text is derived from it. Bridges are numbered along the chain shown (N, C = ends).

Key:
Assay type in all cases: cell-based
[1] = system: WT P. aeruginosa (PAO1-PGSC); test: Microtiter plate (96-well) vesicle lysis assay with WT P. aeruginosa; details: 10 μM OdDHL and PQS, 1 mM BHL, 200 μM 9
Protocol: (§1) Compound handling and preparation. OdDHL and BHL (Hodgkinson et al., 2011), S. aureus AIP and peptide derivatives 1-5 (Tal-Gan et al., 2013, Tal-Gan et al., 2016, Vasquez and Blackwell, 2019), and compounds 7-9 (Welsh and Blackwell, 2016a, Boursier et al., 2018, Manson et al., 2020) were synthesized using previously described methods. PQS and compound 6 were purchased from Millipore Sigma and AK Scientific respectively. Compounds were stored dry at −20° C. until needed and then dissolved in DMSO. DMSO stock solutions were prepared at concentrations that varied with compound potency and apparent solubility. Final in-well compound concentrations for 96-well vesicle lysis assays, unless noted otherwise, were: 10 μM for AIP, OdDHL, and PQS; 1 mM for BHL; 100 nM for 1-4; 10 μM for 5; 20 μM for 6; 100 μM for 7 and 8; and 200 μM for 9.
(§2) Production of phospholipid vesicles with encapsulated calcein. Large unilamellar vesicles (LUVs) were produced by adapting a freeze-thaw and vesicle extrusion procedure (Mayer et al., 1986). Briefly, stock solutions of phospholipids (DOPC, DPPC, DPPE, or cholesterol) in chloroform were mixed to the desired lipid compositions (70 mol % DOPC/30 mol % cholesterol for S. aureus vesicles or 68 mol % DPPC, 30 mol % cholesterol, 2 mol % DPPE for P. aeruginosa vesicles), and the chloroform was removed using an N2 stream or rotary evaporation followed by drying for at least one hour under vacuum. Self-quenching solutions of calcein were prepared by combining calcein and PBS or a specially prepared calcein buffer (1 mM EDTA, 10 mM Trisbase, and 100 mM NaCl; pH 8) to a calcein concentration of […]. The resulting solutions were titrated with 10 M aqueous NaOH until all calcein was dissolved and the solution reached pH 7.4 or pH 8 for PBS and the calcein buffer, respectively. The resulting calcein solutions were added to the dried phospholipid films (PBS for S. aureus formulations and the calcein buffer for the P. aeruginosa formulations) for a final lipid concentration of 5 mg/mL. The resulting lipid solutions were vortexed vigorously and briefly sonicated in a bath sonicator to form a turbid vesicle suspension. The vesicle suspensions were then freeze-thawed five times by alternately immersing them into an iPrOH/dry ice bath and a warm water bath (˜60° C.). Vesicles prepared for continuous time-course experiments were passed at least 5 times through a 100 nm polycarbonate filter using a Mini-prep extruder. Vesicles prepared for the high-throughput screen were passed through the filter 3 times. The resulting vesicles were then separated from external, unloaded calcein using a hand-packed Sephadex-G50 size exclusion chromatography column. The concentration of phospholipid in the solution was quantified using ^31P NMR (per the above protocol), and the phospholipid concentration was adjusted to 2 mM for unsaturated lipid solutions and 1 mM for saturated lipid solutions in their respective buffers. The resulting vesicles were characterized by dynamic light scattering and found to have a hydrodynamic diameter of ˜150 nm (FIGS. 3A-3C), which agrees with previous reports describing vesicle production using a similar method (Lapinski et al., 2007).
Microtiter plate vesicle lysis assays. Portions of media (2 or 10 mL) were inoculated with individual bacterial colonies and allowed to shake overnight. […]

WT S. aureus (RN6390b) = test: Microtiter plate (96-well) vesicle lysis assay with WT S. aureus; details: for calcein leakage with agr inhibitors at equivalent concentration: all compounds at 100 nM, 12 hr
Protocol: as §1, §2
Microtiter plate vesicle lysis assays. Portions of media (2 or 10 mL) were inoculated with individual bacterial colonies and allowed to shake overnight. From these overnight cultures, subcultures were prepared by diluting the cultures 1:50 (v/v) in fresh BHI for S. aureus or 1:100 (v/v) in fresh LB for P. aeruginosa. An aliquot of each subculture (178 μL) was added to 20 μL of vesicle suspension and 2 μL of compound solution (dissolved in DMSO at 100× working concentration) in a clear-bottomed, black 96-well microtiter plate (Corning 3904). For controls, DMSO (vehicle) or Triton X-100 (1% final concentration) was substituted for compound. […]

S. aureus = S. aureus growth (OD600); details: S. aureus WT and QS mutant with vesicles, 12 hr
Protocol: Microtiter plate vesicle lysis assays. Portions of media (2 or 10 mL) were inoculated with individual bacterial colonies and allowed to shake overnight. From these overnight cultures, subcultures were prepared by diluting the cultures 1:50 (v/v) in fresh BHI for S. aureus or 1:100 (v/v) in fresh LB for P. aeruginosa. An aliquot of each subculture (178 μL) was added to 20 μL of vesicle suspension and 2 μL of compound solution (dissolved in DMSO at 100× working concentration) in a clear-bottomed, black 96-well microtiter plate (Corning 3904). For controls, DMSO (vehicle) or Triton X-100 (1% final concentration) was substituted for compound. Plate covers were coated with an aqueous solution of 0.05% Triton X-100 and 20% ethanol (Brewster, 2003) to prevent the accumulation of condensation. Plates were incubated in a Biotek Synergy 2 microplate reader running Gen5 1.05 software at 37° C. with shaking at the high-speed setting. Fluorescence (excitation 500 nm, emission 540 nm) and OD600 (absorbance at 600 nm) measurements were recorded every 15 minutes for 12 hours. All experiments were performed in technical triplicate in a single microtiter plate. Biological triplicates were then obtained over three days. GraphPad Prism software (v. 9) was used to generate curves and calculate standard error.
High-throughput screening and follow-up analysis protocols. Test compounds and positive control 1 were delivered in 2.5 nL aliquots of DMSO with an Echo 550 liquid handler (LabCyte Inc.) into black 384-well microtiter plates (Corning). All test compounds were tested at 10 μM; positive control 1 was tested at 250 nM. DMSO was used as a negative control. Overnight cultures (2 mL) of WT S. aureus (RN6390b) were grown at 37° C. with shaking at 200 rpm. These cultures were diluted 1:500 (v/v) in fresh BHI medium, at which point vesicle solutions were added to a final concentration of 1 mM phospholipid (as determined by ^31P NMR analyses). This vesicle-cell mixture was then added to the 384-well microtiter plates with a Multidrop 384 liquid-dispensing robot (Thermo Scientific) for a total volume of 50 μL per well. Plates were incubated statically for ˜24 hr at 37° C., at which point fluorescence (excitation 483, emission 530) and OD600 (absorbance at 600 nm) measurements were made using a CLARIOstarR Plus microtiter plate reader (BMG Labtech) running MARS data analysis software. Scatter plots were generated using the Collaborative Drug Discovery Vault informatics platform. […] Fluorescence (excitation 510, emission 544) and OD600 measurements were acquired with a PerkinElmer EnVision microtiter plate reader running Envision Manager software. […]

agr = agr YFP transcriptional reporter assay (S. aureus AH1677 with pDB59); details: Staphylococcus aureus
Protocol: Bacterial strains and culture. All bacteria were grown at 37° C. with 200 rpm shaking unless otherwise specified. S. aureus and P. aeruginosa were grown in BHI medium and LB medium, respectively. S. aureus AH1677 (with an agr-YFP reporter plasmid) and P. aeruginosa PAO1-PGSC (with a plasI-LVAgfp reporter plasmid) were used as QS transcriptional reporters and grown with 10 μg/mL chloramphenicol and 300 μg/mL carbenicillin, respectively. All other strains were grown without supplemental antibiotic. S. aureus RN6390b and P. aeruginosa PAO1-PGSC were used as WT strains in vesicle lysis experiments, while S. aureus RN9222 and P. aeruginosa PAO-JG35 were used as QS mutants. RN9222 was grown without antibiotic as it was not used as a reporter strain (i.e., it served only as QS mutant).
High-throughput screening and follow-up analysis protocols. Test compounds and positive control 1 were delivered in 2.5 nL aliquots of DMSO with an Echo 550 liquid handler (LabCyte Inc.) into black 384-well microtiter plates (Corning). All test compounds were tested at 10 μM; positive control 1 was tested at 250 nM. DMSO was used as a negative control. Overnight cultures (2 mL) of WT S. aureus (RN6390b) were grown at 37° C. with shaking at 200 rpm. These cultures were diluted 1:500 (v/v) in fresh BHI medium, at which point vesicle solutions were added to a final concentration of 1 mM phospholipid (as determined by ^31P NMR analyses). This vesicle-cell mixture was then added to the 384-well microtiter plates with a Multidrop 384 liquid-dispensing robot (Thermo Scientific) for a total volume of 50 μL per well. Plates were incubated statically for ˜24 hr at 37° C., at which point fluorescence (excitation 483, emission 530) and OD600 (absorbance at 600 nm) measurements were made using a CLARIOstarR Plus microtiter plate reader (BMG Labtech) running MARS data analysis software. Scatter plots were generated using the Collaborative Drug Discovery Vault informatics platform. The dose-response experiment using the vesicle lysis assay was performed in a 384-well plate in technical duplicate with compound concentrations of 0.1, 0.25, 0.5, 1, 2.5, 5, 10, and 20 μM. Dose-response curves were generated using variable slope (4 parameter) non-linear regression analysis for compound inhibition using GraphPad Prism software (v. 9). Analysis of the QS modulatory activity of the HTS hits and 6 (savirin) was performed using the S. aureus YFP transcriptional reporter strain. HTS hits were purchased directly from Life Chemicals, Inc. DMSO stock solutions (10 mM) of each compound were prepared and stored at −20° C. Serial dilutions (1:3) were prepared from the stock solutions in DMSO, and 2 μL aliquots of the resulting dilutions were added to the wells of black 96-well microtiter plates (Corning). Overnight cultures of the S. aureus reporter strain (2 mL) were grown at 37° C. with shaking at 200 rpm. Cultures were diluted 1:50 (v/v) into fresh BHI medium, and 198 μL of this diluted culture were added to each well containing compound, for a total volume of 200 μL per well. All plates contained a vehicle control consisting of 2 μL of DMSO and 198 μL of culture and a media control consisting of 200 μL BHI. Plates were incubated for ˜24 hours at 37° C. with shaking at 200 rpm. Fluorescence (excitation 510, emission 544) and OD600 measurements were acquired with a PerkinElmer EnVision microtiter plate reader running Envision Manager software. Background fluorescence from BHI control was subtracted from raw fluorescence reads, OD600 corrected, and finally normalized to vehicle control. Dose-response curves and IC50 values were generated using 3-parameter non-linear regression analysis for compound inhibition using GraphPad Prism software (v. 9). All compounds were tested in technical triplicate with at least 3 biological replicates.

Compound | calcein leakage with agr inhibitors at equivalent concentration (WT S. aureus (RN6390b)) | IC50 (agr) | further results
CCCC(=O)N[C@H]1CCOC1=O [BHL, N-butyryl-Lhomoserine lactone] | – | – | effect on vesicle lysis / dye leakage (fluorescence over 12 hr) [1]: earlier onset of dye leakage; also recorded: facilitate vesicle lysis
CC[C@H](C)[C@H](N)C(=O)N[C@@H](CC(N)=O)C(=O)N[C@H]1CSC(=O)[C@H](CC(C)C)NC(=O)[C@H](CC(C)C)NC(=O)[C@H](Cc2ccccc2)NC(=O)[C@H](C)NC1=O [Compound 1, AIP III D4A] (H-INCAFLL; thioester 3-C) | completely prevent calcein leakage | – | effect on vesicle lysis (calcein fluorescence over 12 hr) (WT S. aureus (RN6390b); 100 nM 1, 10 μM 5, 20 μM 6, 10 μM AIP): wholly abrogated vesicle lysis; also recorded: repress vesicle lysis; effect of increasing concentration on onset of calcein leakage (WT S. aureus (RN6390b); 3-fold dilutions starting at 100 nM): increases in the times required for the onset of calcein leakage; impact on cell growth (S. aureus): minimal impact on cell growth
CCCc1cc(C(=O)O)nc2c(-c3ccccc3)c(C)nn12 [Compound 12] | – | 2580 nM | –
Cc1nn2c(C3CC3)cc(C(=O)O)nc2c1-c1ccccc1 [Compound 13] | – | 3350 nM | –
Cc1nn2c(C3CCC3)cc(C(=O)O)nc2c1-c1ccccc1 [Compound 14] | – | 980 nM | –
CCc1cc(C(=O)O)nc2c(-c3ccccc3)c(C)nn12 [Compound 15] | – | 7670 nM | –
Cc1nn2c(C3CCCC3)cc(C(=O)O)nc2c1-c1ccccc1 [Compound 16] | – | 840 nM | –
Cc1nn2c(C(C)(C)C)cc(C(=O)O)nc2c1-c1ccccc1 [Compound 17] | – | 480 nM | –
CCCCCCCCCC(=O)CC(=O)N[C@H]1CCOC1=O [OdDHL, N-(3-oxo-dodecanoyl)-L-homoserine lactone] | – | – | effect on vesicle lysis / dye leakage (fluorescence over 12 hr) [1]: no observable influence on levels of fluorescence; also recorded: no observable effect
CCCCCCCc1[nH]c2ccccc2c(=O)c1O [PQS, Pseudomonas quinolone signal] | – | – | effect on vesicle lysis / dye leakage (fluorescence over 12 hr) [1]: no observable influence on levels of fluorescence; also recorded: no observable effect
AIP III D4A amide [Compound 2] | delayed response | – | –
tr. AIP III D2A [Compound 3] | completely prevent calcein leakage | – | –
tr. AIP III D2A amide [Compound 4] | delayed response | – | –
